Reference: PubChem BioAssay AID588567 (Sanford-Burnham Center for Chemical Genomics, 2011)
The source made the active and inactive calls.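 How the source made its calls: active means mean IC50 at or below 20 µM; inactive means the rest.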

What follows are compounds tested on CHO-CHOP cells viability, ATPlite luminescence, 24 h (assay: cytotoxicity in CHO-CHOP reporter cells, SAR follow-up, cytotoxicity control for UPR adaptive arm activator project, cell-based, 24 h exposure, ATPlite luminescence (AID 588567)).
With `O=C(Nc1ccc(Cl)cc1)c1cc(-c2ccncc2)nc2ccccc12` the IC50 was 63.7 µM (inactive).
With `Cc1nc(Nc2nc(-c3ccccc3)cc(=O)[nH]2)nc2ccccc12` the IC50 was 30.2 µM (inactive).
With `O=C(Nc1ccc(F)cc1)c1cc(-c2ccncc2)nc2ccccc12` the IC50 was > 80 µM (inactive).
In the case of `Cc1ccc(NC(=O)c2cc(-c3ccncc3)nc3ccccc23)cc1`, the IC50 is reported as > 80 µM (inactive).
With `O=C(Nc1ccc(Br)c(C(F)(F)F)c1)c1cc(-c2ccncc2)nc2ccccc12` the IC50 was 50.1 µM (inactive).
`O=C(Nc1ccc(C(F)(F)F)cc1)c1cc(-c2ccncc2)nc2ccccc12` was tested, and the IC50 was 61.3 µM (inactive).
In the case of `Cc1cc(Br)cc(NC(=O)c2cc(-c3ccncc3)nc3ccccc23)c1`, the IC50 is reported as 64.8 µM (inactive).
